Data reported in US20110212909A1, “Use of Ginsenoside Compound K in the Preparation of a Medicament for the Prevention and Treatment of Atherosclerosis” (priority 2008, published 2011).
Marks after values point to notes of the source that are not given here.

Columns and labels:
[1] = system: apo E−/− mouse; experiment: Blood fat assay in serum of apo E−/− mice on Western Diet; type: in vivo; details: for HDL-C in serum / LDL-C in serum / TC in serum / TC-HDL/HDL / TG in serum: 15 weeks
Experimental: (§1) 80 healthy clean grade C57BL/6J apo E^−/^− mice of 10 weeks old, wherein male and female mice were fifty-fifty, weight 20-22 g, were breed and divided into individual cage in sterile laminar flow rack, allowing mice to freely drink water and get food. Mice were raised for 30 weeks by “Western Diet” (routine mouse feed +0.15% cholesterol +21% fat) high fat feed (^60cobalt sterilization radiation treatment), with raising conditions being SPF grade, room temperature maintained at 24° C., relative humidity of 50%, and lighting time of 7: 30-19: 30. Animal house was sterilized by ultraviolet lamp once every two days, in order to maintain sterile environment of laminar flow rack (establishment of animal model of atherosclerosis refers to reference: Barish G D, Atkins A R, Downes M, Olson P, Chong L W, Nelson M, Zou Y H, Hwang H S, Kang H J, Curtiss L, Evans R M, Lee C H. PPARδ regulates multiple proinflammatory pathways to suppress atherosclerosis. Proc Natl Acad Sci, 2008, 105 (11): 4271-4276.).
5 mice of apo E^−/^− mice raised for 15 weeks were randomly selected and sacrificed, root of aorta of which was taken, and replication condition in AS model was observed by HE staining. The remaining mice were randomly divided into 5 groups as follows (n=15):
A. model group: vehicle; B. ginsenoside compound K low dose group: ginsenoside compound K 12.5 mg/kg/day; C. ginsenoside compound K middle dose group: ginsenoside compound K 25.0 mg/kg/day; D. ginsenoside compound K high dose group: ginsenoside compound K 50.0 mg/kg/day; E. simvastatin control group: simvastatin 10.0 mg/kg/day.
Above drugs were firstly solved in DMSO, then suspended in 0.5% carboxymethylcellulose solution, mixed homogeneously, and then were administered via gavage, once a day. Mice were weighted once a week, and ingestion amounts were recorded, and drug doses were adjusted according to weight, interfering for 15 weeks. All the animal were sacrificed in 30th week.
apo E^−/^− mouse serum sample: apo E^−/^− mice were interfered by drug for 15 weeks, then were fasted for 12 hours before sampling. Before being sacrificed, mice were anesthetized by 0.5-1.0 mL 1% Pentobarbital via abdominal cavity, and under sterile condition, 1.5 mL blood form their eye sockets venous plexus was sampled, and centrifugated at 2500 r/min for 10 minutes, and then serum was separated, and frozen and stored at −80° C., for determining blood fat concentrations and inflammatory markers in serum.
• blood fat assay: TC, TG, HDL-C, and LDL-C concentrations in serum were determined by applying Olympus Au2700 fully automatic biochemical appearance. • serum inflammatory markers assay: hs-CRP and sCD40L concentrations were determined by applying double antibody sandwich ELISA, in accordance with ELISA kit operating instruction (hs-CRP ELISA kit bought from Herrenberg company, Germany; sCD40L ELISA kit bought from Bender Medsystems company, Austria). • real-time quantitative PCR analysis was carried out on expression of CD36, perilipin, ABCA1, LXRα, MMP-9 and NF-κ B mRNA in apo E^−/^− mouse aorta (a reference method: Zhang Yiguan, Li Xiaohui, Fan Jishan, Zhang Haigang, Li Shuhui, Liao Wenqiang, Pang Yan, Jia Yi. Total panax notoginsenosides suppress atherosclerosis formation in rats by means of antiinflammatory and blood fat regulating action. Progress in Modern Biomedicine. 2007, 27 (11): 1601-1607)0 • morphology index image analysis: When slices were HE stained, under X40 fold ordinary light microscope, artery atherosclerosis plaque area of each incisal surface was determined by “Image Pro Plus 5.0” image analysis software. Plaque area (PA), vessel cross section area (CVA), lipid core area (LCA), and minimal fibrous cap thickness (mFCT) were measured, and corrected plaque area (plaque area/vessel cross section area, PA/CVA) and corrected lipid core area (lipid core area/plaque area, LCA/PA) were calculated, and average of 4 incisal surfaces was taken for each sample. […]

[2] = system: sCD40L; experiment: Serum sCD40L by double antibody sandwich ELISA in apo E−/− mice; type: in vivo, mouse; details: 15 weeks
Experimental: as §1
(§2) 5 mice of apo E^−/^− mice raised for 15 weeks were randomly selected and sacrificed, root of aorta of which was taken, and replication condition in AS model was observed by HE staining. The remaining mice were randomly divided into 5 groups as follows (n=15): […]
(§3) Above drugs were firstly solved in DMSO, then suspended in 0.5% carboxymethylcellulose solution, mixed homogeneously, and then were administered via gavage, once a day. Mice were weighted once a week, and ingestion amounts were recorded, and drug doses were adjusted according to weight, interfering for 15 weeks. […]
• blood fat assay: TC, TG, HDL-C, and LDL-C concentrations in serum were determined by applying Olympus Au2700 fully automatic biochemical appearance. • serum inflammatory markers assay: hs-CRP and sCD40L concentrations were determined by applying double antibody sandwich ELISA, in accordance with ELISA kit operating instruction (hs-CRP ELISA kit bought from Herrenberg company, Germany; sCD40L ELISA kit bought from Bender Medsystems company, Austria). • real-time quantitative PCR analysis was carried out on expression of CD36, perilipin, ABCA1, LXRα, MMP-9 and NF-κ B mRNA in apo E^−/^− mouse aorta (a reference method: Zhang Yiguan, Li Xiaohui, Fan Jishan, Zhang Haigang, Li Shuhui, Liao Wenqiang, Pang Yan, Jia Yi. […] 2007, 27 (11): 1601-1607)0 • morphology index image analysis: When slices were HE stained, under X40 fold ordinary light microscope, artery atherosclerosis plaque area of each incisal surface was determined by “Image Pro Plus 5.0” image analysis software. […]

[3] = system: CD36 mRNA; experiment: Real-time quantitative PCR of CD36 mRNA in apo E−/− mouse aorta; type: in vivo; details: apo E−/− mice, 15 weeks
Experimental: as §1, §2, §3
(§4) • blood fat assay: TC, TG, HDL-C, and LDL-C concentrations in serum were determined by applying Olympus Au2700 fully automatic biochemical appearance. • serum inflammatory markers assay: hs-CRP and sCD40L concentrations were determined by applying double antibody sandwich ELISA, in accordance with ELISA kit operating instruction (hs-CRP ELISA kit bought from Herrenberg company, Germany; sCD40L ELISA kit bought from Bender Medsystems company, Austria). • real-time quantitative PCR analysis was carried out on expression of CD36, perilipin, ABCA1, LXRα, MMP-9 and NF-κ B mRNA in apo E^−/^− mouse aorta (a reference method: Zhang Yiguan, Li Xiaohui, Fan Jishan, Zhang Haigang, Li Shuhui, Liao Wenqiang, Pang Yan, Jia Yi. […] 2007, 27 (11): 1601-1607)0 • morphology index image analysis: When slices were HE stained, under X40 fold ordinary light microscope, artery atherosclerosis plaque area of each incisal surface was determined by “Image Pro Plus 5.0” image analysis software. […] As to Masosn staining, aortic root collagen area (CA) was measured by “Image Pro Plus 5.0” image analysis software, and collagen vessel area ratio (CA/CVA) was calculated. […]

[4] = system: MMP-9 mRNA; experiment: Real-time quantitative PCR of MMP-9 mRNA in apo E−/− mouse aorta; type: in vivo; details: apo E−/− mice, 15 weeks
Experimental: as §1, §2, §3, §4

[5] = system: NF-κB mRNA; experiment: Real-time quantitative PCR of NF-κB mRNA in apo E−/− mouse aorta; type: in vivo; details: apo E−/− mice, 15 weeks
Excerpt: Total RNA sample of root of aorta of apo E^−/^− mouse: Total RNA samples of root of aorta in each group mouse were extracted, and utilized for analysis of gene expression of various lipid metabolic factors, inflammatory factors, and nucleic transcription factors associated with AS plaque development.

[6] = system: AS plaque in apo E−/− mouse aorta; experiment: Sudan IV staining of aorta, proportion of plaque area in arteria lining endothelium area; type: in vivo; details: apo E−/− mice, 15 weeks
Excerpt: Tissues of apo E^−/^− mice were sliced for AS plaque pathology: blood of eye sockets venous plexus of apo E−/− mice was sampled before the mice was sacrificed by cervical dislocation, and aorta was fixed by converse infusion of physiological saline comprising 4% paraformaldehyde into left ventricle, and then whole aorta was cut off from root of aorta to terminal end of abdomen aorta. Root of aorta was taken, and embedded routinely by paraffin, and slices of thickness of 5 μm were continuously cut off from root of aorta, and were subjected separately to HE staining, and MASSON staining, and then were utilized for AS plaque morphological index analysis of aortic valve cross section.
Pathological staining: □sequent 2 pieces of slices were picked up from each incisal surface of sequent paraffin slices of aorta root per mouse, and were separately subjected to HE staining, and MASSON staining, and were observed under light microscope. □remaining aorta was stained by Sudan IV, and was observed under light microscope.

[7] = C-K high dose 50.0 mg/kg/day gavage
[8] = C-K middle dose 25.0 mg/kg/day gavage
[9] = simvastatin 10.0 mg/kg/day gavage

## CC(C)=CCC[C@](C)(OC1OC(CO)C(O)C(O)C1O)C1CC[C@]2(C)C1[C@H](O)CC1[C@@]3(C)CC[C@H](O)C(C)(C)C3CC[C@]12C (stereo partly drawn) [C-K, 20-O-β-D-glucopyranosyl 20-(S)-protopanaxadiol]
[1]; C-K 12.5-50.0 mg/kg/day vs simvastatin 10.0 mg/kg/day
  action in regulating blood fat compared with simvastatin: not as good as that of simvastatin
[1]; [7]
  HDL-C in serum: 4.42 ± 1.06^a mmol/L
  LDL-C in serum: 6.11 ± 1.18^a mmol/L
  TC in serum: 20.48 ± 4.34^b mmol/L
  TC-HDL/HDL: 3.63 ± 0.10^b
  TG in serum: 2.19 ± 0.51^b mmol/L
[1]; C-K low dose 12.5 mg/kg/day gavage, model 2.65 ± 0.39
  TG in serum: 2.32 ± 0.41^a mmol/L
[1]; C-K low dose 12.5 mg/kg/day gavage, model 3.79 ± 1.17
  HDL-C in serum: 4.08 ± 1.32^a mmol/L
[1]; C-K low dose 12.5 mg/kg/day gavage, model 5.24 ± 0.36
  TC-HDL/HDL: 4.34 ± 0.16^a
[1]; C-K low dose 12.5 mg/kg/day gavage, model 6.99 ± 1.09
  LDL-C in serum: 6.45 ± 1.30^a mmol/L
[1]; C-K low dose 12.5 mg/kg/day gavage, model 23.59 ± 3.79
  TC in serum: 21.79 ± 4.53^a mmol/L
[1]; [8]
  HDL-C in serum: 4.12 ± 1.15^a mmol/L
  LDL-C in serum: 6.34 ± 1.22^a mmol/L
  TC in serum: 21.29 ± 4.44^a mmol/L
  TC-HDL/HDL: 4.17 ± 0.13^b
  TG in serum: 2.28 ± 0.32^a mmol/L
[2]; [7]
  sCD40L concentration in serum: 5.19 ± 0.19^a ng/mL
[2]; C-K low dose 12.5 mg/kg/day gavage, model 6.15 ± 0.21
  sCD40L concentration in serum: 5.51 ± 0.35^a ng/mL
[2]; [8]
  sCD40L concentration in serum: 5.34 ± 0.32^a ng/mL
[3]; [7]
  expression of CD36 mRNA in aorta (relative concentrations): 0.31 ± 0.08^b
[3]; C-K low dose 12.5 mg/kg/day gavage, model 1.12 ± 0.13
  expression of CD36 mRNA in aorta (relative concentrations): 0.54 ± 0.07^b
[3]; [8]
  expression of CD36 mRNA in aorta (relative concentrations): 0.47 ± 0.08^b
[4]; [7]
  expression of MMP-9 mRNA in aorta (relative concentrations): 0.67 ± 0.13^b
[4]; C-K low dose 12.5 mg/kg/day gavage, model 1.15 ± 0.12
  expression of MMP-9 mRNA in aorta (relative concentrations): 0.87 ± 0.12^b
[4]; [8]
  expression of MMP-9 mRNA in aorta (relative concentrations): 0.78 ± 0.11^b
[5]; [7]
  expression of NF-κB mRNA in aorta (relative concentrations): 0.69 ± 0.16^b
[5]; C-K low dose 12.5 mg/kg/day gavage, model 1.27 ± 0.18
  expression of NF-κB mRNA in aorta (relative concentrations): 0.90 ± 0.19^b
[5]; [8]
  expression of NF-κB mRNA in aorta (relative concentrations): 0.78 ± 0.23^b
[6]; [7]
  plaque area/ arteria lining endothelium area: 6.73 ± 0.65^b %
[6]; C-K low dose 12.5 mg/kg/day gavage, model 12.24 ± 0.45
  plaque area/ arteria lining endothelium area: 9.28 ± 0.39^b %
[6]; [8]
  plaque area/ arteria lining endothelium area: 9.54 ± 0.21^b %

## CCC(C)(C)C(=O)O[C@H]1C[C@@H](C)C=C2C=C[C@H](C)[C@H](CC[C@@H]3C[C@@H](O)CC(=O)O3)[C@H]21 [simvastatin, reference compound]
[1]; [9]
  HDL-C in serum: 3.80 ± 1.12 mmol/L
  LDL-C in serum: 1.73 ± 1.36^b mmol/L
  TC in serum: 13.62 ± 4.49^b mmol/L
  TC-HDL/HDL: 2.58 ± 0.18^b
  TG in serum: 1.34 ± 0.46^b mmol/L
[2]; [9]
  sCD40L concentration in serum: 4.59 ± 0.37^b ng/mL
[3]; [9]
  expression of CD36 mRNA in aorta (relative concentrations): 0.77 ± 0.11^a
[4]; [9]
  expression of MMP-9 mRNA in aorta (relative concentrations): 0.94 ± 0.14^a
[5]; [9]
  expression of NF-κB mRNA in aorta (relative concentrations): 0.89 ± 0.16^b
[6]; [9]
  plaque area/ arteria lining endothelium area: 6.31 ± 0.19^b %
